# From US20210403567A1, “METHODS OF TREATING CERVICAL CANCER BY ADMINISTERING A PD-1 INHIBITOR” (priority 2020, published 2021)
# Several values for one entry are separate records, joined by “and”; a condition that tells them apart may be missing. Equal values may be shown once.
# Columns and labels:
# [1] = test system: recurrent or metastatic cervical cancer that has progressed after platinum-containing chemotherapy; assay: Phase 3 trial, cemiplimab 350 mg IV Q3W versus investigator's choice (IC) chemotherapy: OS, PFS, ORR, DOR; details: for Median PFS (95% CI) / Median OS (95% CI) / Median DOR, months (95% CI): Kaplan-Meier; for PFS HR (95% CI) / OS subgroup analysis, Hazard Ratio (95% CI) / OS Hazard Ratio (95% CI): cemiplimab vs chemotherapy; for reduction in the risk of disease progression: vs chemotherapy;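 for all read-outs here: randomized trial arms, OS counted from randomization until death with censoring at last contact, PFS until first RECIST 1.1 progression or death from any cause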
# cervical cancer = assay: Dose escalation cohort of the cemiplimab first-in-human study, cervical cancer patients; format: in vivo; details: one cervical squamous patient, earlier response to cemiplimab+hfRT in dose escalation
# Source text: (Papadopoulos et al., Clin Cancer Res (December 2019) Epub). The sum total equates to a 17% objective response rate among cervical cancer patients enrolled in the phase I study (4/23 combined; 2/3 responding patients in dose escalation plus 2/20 in expansion cohorts). All responders had squamous histology.
# [2] = Example 4 updated, SCC, listed as cemiplimab
# [3] = Example 4 updated, overall population
# [4] = Example 4 updated, overall population, listed as cemiplimab
# [5] = overall population, listed as cemiplimab
# [6] = overall population, N=304 per arm
substance,measurement,setting,value
cemiplimab,Median PFS (95% CI),[1]; [2],2.8 months
same,PFS HR (95% CI),"[1]; Example 4 updated, SCC","0.705 (0.578, 0.861)"
same,PFS HR (95% CI),[1]; [2],0.71
same,reduction in the risk of disease progression,"[1]; Example 4 updated, SCC",29%
same,PFS: Number of censored patients,[1]; [3],51(16.8%) n (%)
same,PFS: Number of deaths,[1]; [3],41(13.5%) n (%)
same,PFS: Progressive Disease,[1]; [3],212 (69.7%) n (%)
same,Median PFS (95% CI),[1]; [3],"2.8 (2.6, 3.9) months"
same,Median PFS (95% CI),[1]; [4],2.8 months
same,PFS: Number of events,"[1]; Example 4 updated, overall population, N=304 per arm",253 (83.2%) n (%)
same,PFS HR (95% CI),[1]; [3],"0.745 (0.625, 0.890)"
same,PFS HR (95% CI),[1]; [4],0.75
same,reduction in the risk of disease progression,[1]; [3],25%
same,"OS subgroup analysis, Hazard Ratio (95% CI)",[1]; Geographic region: Asia,0.65 (0.44-0.96)
same,"OS subgroup analysis, Hazard Ratio (95% CI)",[1]; Geographic region: North America,0.52 (0.27-1.00)
same,"OS subgroup analysis, Hazard Ratio (95% CI)",[1]; Geographic region: Rest of World,0.73 (0.57-0.94)
same,"OS subgroup analysis, Hazard Ratio (95% CI)",[1]; Prior bevacizumab use: No,0.76 (0.58-1.00)
same,"OS subgroup analysis, Hazard Ratio (95% CI)",[1]; Prior bevacizumab use: Yes,0.64 (0.48-0.86)
same,Reduced risk of death (vs. chemotherapy),[1]; SCC,27%
same,"Estimated Event-Free Probability (PFS), % (95% CI)","[1]; SCC, 6 months","34.5 (28.5, 40.5) %"
same,"Estimated Survival Probability, % (95% CI)","[1]; SCC, 6 months","69.6 (63.3, 75.0) %"
same,"Estimated Event-Free Probability (PFS), % (95% CI)","[1]; SCC, 12 months","21.0 (15.8, 26.6) %"
same,"Estimated Survival Probability, % (95% CI)","[1]; SCC, 12 months","48.2 (41.3, 54.7) %"
same,"Estimated Event-Free Probability (PFS), % (95% CI)","[1]; SCC, 18 months","14.5 (9.7, 20.1) %"
same,"Estimated Survival Probability, % (95% CI)","[1]; SCC, 18 months","33.4 (26.3, 40.6) %"
same,"Estimated Event-Free Probability (PFS), % (95% CI)","[1]; SCC, 24 months","10.3 (5.9, 16.0) %"
same,"Estimated Survival Probability, % (95% CI)","[1]; SCC, 24 months","25.3 (17.8, 33.5) %"
same,"Estimated Event-Free Probability (PFS), % (95% CI)","[1]; SCC, 30 months","7.7 (3.2, 14.8) %"
same,"Estimated Survival Probability, % (95% CI)","[1]; SCC, 30 months","25.3 (17.8, 33.5) %"
same,Median OS (95% CI),[1]; SCC,"11.1 (9.2, 13.4) months"
same,Median OS (95% CI),"[1]; SCC, listed as cemiplimab",11.1 months
same,OS Hazard Ratio (95% CI),"[1]; SCC, stratified proportional hazards model","0.727 (0.579, 0.914) and 0.73 (0.58-0.91)"
same,OS Hazard Ratio (95% CI),"[1]; SCC, stratified proportional hazards model, listed as cemiplimab",0.73
same,ORR,"[1]; SCC, listed as cemiplimab",17.6% and 18%
same,Reduced risk of death (vs. chemotherapy),"[1]; SCC, listed as cemiplimab",27%
same,OS: Number of deaths,"[1]; adenocarcinoma/adenosquamous (AC), cemiplimab N=65, chemo N=66",41 (63.1%) n (%)
same,"Median observed time to response, months (range)",[1]; overall population,2.7 (1.2-11.4) months
same,Reduced risk of death (vs. chemotherapy),[1]; overall population,31%
same,"Estimated Event-Free Probability (PFS), % (95% CI)","[1]; overall population, 6 months","33.5 (28.2, 38.9) %"
same,"Estimated Survival Probability, % (95% CI)","[1]; overall population, 6 months","69.6 (64.0, 74.5) %"
same,"Estimated Event-Free Probability (PFS), % (95% CI)","[1]; overall population, 12 months","18.8 (14.4, 23.6) %"
same,"Estimated Survival Probability, % (95% CI)","[1]; overall population, 12 months","50.2 (44.1, 56.0) %"
same,"Estimated Event-Free Probability (PFS), % (95% CI)","[1]; overall population, 18 months","13.0 (9.0, 17.8) %"
same,"Estimated Survival Probability, % (95% CI)","[1]; overall population, 18 months","33.4 (27.2, 39.7) %"
same,"Estimated Event-Free Probability (PFS), % (95% CI)","[1]; overall population, 24 months","9.7 (6.0, 14.6) %"
same,"Estimated Survival Probability, % (95% CI)","[1]; overall population, 24 months","23.6 (17.1, 30.6) %"
same,"Estimated Event-Free Probability (PFS), % (95% CI)","[1]; overall population, 30 months","7.8 (3.8, 13.6) %"
same,"Estimated Survival Probability, % (95% CI)","[1]; overall population, 30 months","23.6 (17.1, 30.6) %"
same,"Median DOR, months (95% CI)",[1]; overall population,"16.4 (12.4, NE) months"
same,Median OS (95% CI),[1]; overall population,"12.0 (10.3, 13.5) months"
same,"Median DOR, months (95% CI)",[1]; [5],16 months
same,Median OS (95% CI),[1]; [5],12 months and 12.0 months
same,Best Overall Tumor Response: Complete Response (CR),[1]; [6],10 (3.3) n (%)
same,Best Overall Tumor Response: Not Evaluable (NE),[1]; [6],24 (7.9) n (%)
same,Best Overall Tumor Response: Partial Response (PR),[1]; [6],40 (13.2) n (%)
same,Best Overall Tumor Response: Progressive Disease (PD),[1]; [6],105 (34.5) n (%)
same,OS: Number of censored patients,[1]; [6],120 (39.5%) n (%)
same,OS: Number of deaths,[1]; [6],184 (60.5%) n (%)
same,Objective Response Rate (ORR: CR + PR),[1]; [6],50 (16.4%) n (%)
same,OS Hazard Ratio (95% CI),[1]; overall population,"0.685 (0.560, 0.838)"
same,OS Hazard Ratio (95% CI),[1]; [5],0.69
same,ORR,[1]; [5],16.4% and 16%
same,Reduced risk of death (vs. chemotherapy),[1]; [5],31%
same,"OS subgroup analysis, Hazard Ratio (95% CI)",[1]; prior lines: 1 line,0.74 (0.58-0.94)
same,"OS subgroup analysis, Hazard Ratio (95% CI)",[1]; prior lines: >1 line,0.72 (0.54-0.95)
same,response to retreatment after disease recurrence,cervical cancer,complete response
